In article PMC10119282, “Molecular characterization of AIFM2/FSP1 inhibition by iFSP1-like molecules” (Cell Death & Disease, 2023) one finds IC50 data, which are given here for one compound.

One may read the IC50 as the concentration needed to halve the response being measured.

Structures are written as SMILES.

This assay relates to Pfa1 Gpx4−/− overexpressing chimeric FSP1 C3. Kind of assay: Cell viability (Alamar blue), chimeric construct C3. In kind it is cell-based, murine. The note with it: Mus musculus; chimeric construct C3 (human residues 121 to 180); x axis iFSP1 (μM); read-out: IC50 (dose-response toxicity). On the procedure:
Cell Lines. 4-hydroxytamoxifen (TAM)-inducible Gpx4^−/− murine immortalized fibroblasts (Pfa1) were reported previously. These cells harbor two loxP-flanked Gpx4 alleles and stably express TAM inducible Cre recombinase allowing the genetic deletion of Gpx4 at will. For all experiments using Gpx4^−/− the well were treated with 4-hydroxitamoxifen (TAM) 1 µM. All cells were cultured with were cultured in DMEM-high glucose (4.5 g glucose/L) with 10% fetal bovine serum (FBS), Glutamax, and 1% penicillin/streptomycin (Gibco, Thermo Fischer) at 37 °C with 5% CO2 and verified to be negative for mycoplasma.
Cell viability assays. Alamar Blue method: Cells were seeded on 96-well plates (2000 cells per well) and treated with the compounds RSL3, iFSP1 and (liproxstatin-1) after plating. Cell viability was assessed 48 h (unless stated otherwise) after treatment using Alamar Blue as an indicator of viable cells. Alamar blue solution was made by dissolving of 1 g resazurin sodium salt (Thermo Fischer) in 200 mL sterile PBS and sterile filtrated through a 0.22 µm filter. Stock solutions were stored at 4 °C. The working solution was made freshly by adding 200 µL of the stock solution to 25 mL growth media. After 2–4 h incubation time, viability was estimated by measuring the fluorescence using a 540/35 excitation filter and a 590/20 emission on a Spark® microplate reader (Tecan, Zürich, Switzerland). […]
A general note: Resazurin is reduced to fluorescent resorufin, in cell work by metabolically active cells.

In the case of `Cc1ccc(-c2c(C#N)c(N)n3c(nc4ccccc43)c2C#N)cc1` [iFSP1], the IC50 worked out at 8.71 µM.
